In US20110251188A1, “ACENAPHTHO HETEROCYCLE COMPOUNDS, CYCLODEXTRIN INCLUSION COMPOUNDS AND COMPLEXES, AND USES IN THE MANUFACTURES OF BH3 PROTEIN ANALOGUE, BCL-2 FAMILY PROTEIN INHIBITORS THEREOF” (DALIAN UNIVERSITY OF TECHNOLOGY, priority 2008, published 2011):
Converted amounts (≈) assume the structure as drawn. Like-named read-outs stand apart in the source and are kept apart here. One block for each compound: values may come before it.

Experiments:
[1] = target: T1, interaction between Bcl-2 and Bax (Homo sapiens, UniProt P10415); assay: intracellular fluorescence polarization energy transfer (FRET), Hela cells transfected with Bcl-2-CFP and Bax-YFP; type: cell-based; details: for Time for which the compound interfered with the interaction between Bcl-2 and Bax: goes with the concentration of E11; for Concentration at which the compound interfered with the interaction between Bcl-2 and Bax: goes with the time of E12
T1 construct: expressed in transfected cells; host or cells: Hela cells
T1 sequence (P10415 whole entry): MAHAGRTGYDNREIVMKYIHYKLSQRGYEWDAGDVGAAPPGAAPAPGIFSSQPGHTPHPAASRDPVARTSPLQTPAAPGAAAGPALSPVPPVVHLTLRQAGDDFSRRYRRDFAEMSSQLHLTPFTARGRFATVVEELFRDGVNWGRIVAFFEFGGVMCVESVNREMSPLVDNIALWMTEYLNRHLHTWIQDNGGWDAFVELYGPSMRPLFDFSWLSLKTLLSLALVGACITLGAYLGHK
Experimental: 24 hours later (please refer to FIG. 2), the cells were washed with PBS for three times. The fluorescence value was detected by GENIOS fluorescence enzyme-labelled meter (TECAN, Swiss). In time-dependent experiment, the transfected cells were inoculated in a 6-well plate, after that, 40 μM of the compound was added thereinto. 3, 6 and 24 hours later (FIG. 3), the fluorescence intensities were detected by plate reader. As for the cell group in which only Bcl-2-CFP plasmid was transfected, the values at 475 nm emission wave length and 433 nm excitation wave length were recorded. As for the cell group in which only Bax-YFP plasmid was transfected, the values at 527 nm emission wave length and 505 nm excitation wave length were recorded. […] The ratio of fluorescence intensity at 527 nm and 475 nm emission wave lengths was FRET. The FRET for the control group in which the plasmid was solely transfected was set as 1.0. […] The cellular vitality was detected by MTT method.
Wherein the concentration and time meant that the detected compound interfered with the interaction between Bcl-2 and Bax at the concentration for the time period.

GST-Bcl-2 protein = target: T2, GST-Bcl-2 protein (Homo sapiens, UniProt P10415); assay: fluorescence polarization assay, competitive binding against FAM-Bid peptide; details: Table 3; FAM-Bid competition; table does not say whether Bcl-2 or Mcl-1; read-out: Binding constant
T2 construct: fused on or other part: GST tag on Bcl-2
T2 sequence (P10415 whole entry, the tested form may be a part): as the sequence (P10415 whole entry) above
Experimental: A Bid BH3 peptide (amino acids: 79-99: […]) having 21 amino acids was synthesized and marked with 6-carboxyfluorescein N-succinimidyl ester (FAM) as fluorescent tag (FAM-Bid) at the N-terminal. The reaction system used in the competitive binding experiment was GST-Bcl-2 protein (40 nM) or Mcl-1 protein, which was dissolved in the reaction buffer (100 mM K3PO4, pH 7.5; 100 μg/ml bovine γ albumin; 0.02% sodium azide) together with FAM-Bid polypeptide (5 nM). In a 96-well plate, 100 μL of the reaction system was added into each well. Then 1 μL different concentration of 3-thiomorpholinyl-8-oxo-8H-acenaphtho[1,2-b]pyrrole-9-carbonitrile mother solution to be detected dissolved in DMSO was added thereinto until the final concentration met the experimental design requirements. Meanwhile, two control groups were established, one with the reaction system only contains Bcl-2 or Mcl-1 and FAM-Bid (equivalent to 0% inhibition rate), the other with the reaction system only containing FAM-Bid peptide. After 4 hours of incubation, the 96-well plate was detected by enzyme-labelled meter. The fluorescent polarization value (mP) was tested at […]. Ki value was deduced according to calculation formula. The competitive binding constant between the compound and Bcl-2 was 310 nM.

MCF-7 cells = assay: cytotoxicity depending on BAX/BAK, MTT, MCF-7 cells with or without BAX/BAK interfering plasmid; type: cell-based
Experimental: 3 ng of BAX/BAK interfering plasmid was transfected into MCF-7 cells by using calcium phosphate coprecipitation method, 24 hours later, the cells were collected. The expressions after the BAX and BAK proteins interfered with RNA was detected by Western, and the cell groups without plasmid transfection were treated similarly and were set as the control group. The transfected cells were inoculated in a 96-well plate (1×10^5 cells/well), the control experiment of the cell group without plasmid transfection was carried out in parallel. The compound 3-thiomorpholinyl-8-oxo-8 H-acenaphtho[1,2-b]pyrrole-9-carbonitrile to be detected was added thereinto according to the concentration gradient designed before the experiment. 48 hours later, the cellular vitality was detected by MTT. The experimental results were shown in FIG. 6, Gossypol as nonspecific BH3 analogue was treated in parallel.

[2] = phase solubility experiment (solubility in water before and after cyclodextrin inclusion or complexation); details: for solubility: thermodynamic from solid, Solubility of compounds
[3] = system: hepatoma carcinoma cells H22; assay: in vivo tumor model, subcutaneous H22 tumor in Kunming mice; details: H22 mouse model of Example 25; dose and route not stated at the place
Experimental: The Kunming mice (in China) were randomly divided into groups, with 10 mice in each group. The cultivated hepatoma carcinoma cells H22 were inoculated subcutaneously in the oxter of the mice with 200 μL/mouse. After bearing the cancer cells for five days, the subcutaneous tumor was formed. Then the compound 3-thiomorpholinyl-8-oxo-8H-acenaphtho[1,2-b]pyrrole-9-carbonitrile and γ-cyclodextrin inclusion compound thereof were given by peritoneal injection, and the compound to be detected included by γ-cyclodextrin was given by oral administration. The detection conditions comprise:
Blank control group: the mice were not treated in any manner after the bearing cancer;
Control group (1): the mice were given a peritoneal injection of DMSO solution every other day after the bearing cancer, 10 days in total;
Control group (2): the mice were given a peritoneal injection of cyclodextrin solution every other day after the bearing cancer, 10 days in total;
Experimental group (1): the mice were given a peritoneal injection of DMSO solution equivalent to 0.03 mg/kg BW compound every other day after the bearing cancer, 10 days in total;
Experimental group (2): the mice were given a peritoneal injection of DMSO solution equivalent to 0.3 mg/kg BW compound every other day after the bearing cancer, 10 days in total;
Experimental group (3): the mice were given a peritoneal injection of inclusion compound water solution equivalent to 0.3 mg/kg BW compound every other day after the bearing cancer, 10 days in total;
Experimental group (4): the mice were given an intragastric administration of inclusion compounds water solution equivalent to 0.3 mg/kg BW compound every other day after the bearing cancer, 10 days in total;
During the experimental period, the length-diameter (a) and short diameter (b), which was perpendicular to the length-diameter, of the tumor were detected twice every week. The gross tumor volume was determined according to the formula: ½ab^2. The survival time of the animal was observed. The tumor inhibition rate was calculated by the tumor volume on the fortieth day.

Bcl-2 = assay: Western blotting, inhibition (downregulation) of Bcl-2 in tumor cells, Example 23; type: cell-based; details: for inhibition against Bcl-2: Western blotting, tumor cells
Experimental: (§1) The interest protein was detected by the corresponding antibody. The expression of the interest protein in the cells was detected by horseradish peroxidase-labeled secondary antibodies in combination with ECL coloration method. […] The concentration of the protein bands in the Western images were carried out semiquantitative analysis and normalization treatment with KODAK Gel Logic 1500 imaging system software.

Mcl-1 = assay: Western blotting, inhibition (downregulation) of Mcl-1 in tumor cells, Example 23; type: cell-based; details: for inhibition against Mcl-1: Western blotting, tumor cells
Experimental: as §1

Bax protein = assay: co-localization between Bax protein and chondriosome, Bax-YFP transfected MCF-7 cells; type: cell-based; details: for Time for which the compound drove the BAX to shift towards the chondriosome: goes with the concentration of E14; for Concentration at which the compound drove the BAX to shift towards the chondriosome: goes with the time of E15
Experimental: 5 ng of Bax-YFP plasmid was transfected into MCF-7 cells by using calcium phosphate coprecipitation method, 24 hours later, the cells were inoculated in a 6-well plate (0.2×10^6 cells/well), and 10 μM of the compound 3-thiomorpholinyl-8-oxo-8 H-acenaphtho[1,2-b]pyrrole-9-carbonitrile to be detected was added thereinto. 6 hours later, the cells were washed with PBS and hatched away from light with 50 nM Mito Tracker Red CMXRos (chondriosome specific probes; red) for 10 minutes. Then the cells were washed with PBS for three times, and the fluorescent image was scanned with Radiance2000 laser confocal microscopy (Bio-Rad, USA). Meanwhile, dual channel scanning was carried out, one channel was used to scan the green fluorescence of Bax-YFP, and the other channel was used to scan the red fluorescence of the CMXRos probe for indicating the chondriosome. […] When the Bax protein was localized on the chondriosome, the green and red fluorescence was superimposed into orange, as shown in FIG. 4.
Other 8 compounds were detected by the same experimental method as described above. […] Wherein the concentration and time meant that the detected compound simulated the BH3-only protein and driven the BAX to shift towards the chondriosome at the concentration for the time period.

[4] = Table 1, compound per se, before inclusion

Compound: 3-phenoxy-8-oxo-8H-acenaphtho[1,2-b]pyrrole-9-carboxylate
Time for which the compound interfered with the interaction between Bcl-2 and Bax [1]: 6 h
Concentration at which the compound interfered with the interaction between Bcl-2 and Bax [1]: 10.0 µM
Ki (GST-Bcl-2 protein): 790 nM

Compound: N#CC1=C2C(=NC1=O)c1cccc3c(C(=O)c4cccc(F)c4)ccc2c13 [3-(3-fluorophenylformyl)-8-oxo-8H-acenaphtho[1,2-b]pyrrole-9-carbonitrile]
Time for which the compound interfered with the interaction between Bcl-2 and Bax [1]: 6 h
Concentration at which the compound interfered with the interaction between Bcl-2 and Bax [1]: 10.0 µM
dependence of cytotoxicity on BAX/BAK (MCF-7 cells): absolute dependence on BAX/BAK

Compound: O=C(O)C1=C2C(=NC1=O)c1cccc3c(Sc4ccc(Br)cc4)ccc2c13 [3-(4-bromophenylthio)-8-oxo-8H-acenaphtho[1,2-b]pyrrole-9-carboxylic acid]
solubility ([2]; Table 2, compound per se, before complexation): 0.55 µM (≈ 0.24 µg/mL)
tumor inhibition rate [3]: 45%

Compound: CC(C)(C)NC(=O)C1=C2C(=NC1=O)c1cccc3c(Oc4ccccc4)ccc2c13 [3-phenoxy-8-oxo-8H-acenaphtho[1,2-b]pyrrole-9-N-tert-butylamide]
downregulation of Bcl-2 protein, semiquantitative analysis (band concentration, control = 1) (Bcl-2; 2 hours): 0.80
downregulation of Bcl-2 protein, semiquantitative analysis (band concentration, control = 1) (Bcl-2; 6 hours): 0.56
inhibition against Bcl-2 (Bcl-2): had the inhibition against Bcl-2 and Mcl-1 proteins
downregulation of Mcl-1 protein, semiquantitative analysis (band concentration, control = 1) (Mcl-1; 6 hours): 0.99
downregulation of Mcl-1 protein, semiquantitative analysis (band concentration, control = 1) (Mcl-1; 12 hours): 0.99
downregulation of Mcl-1 protein, semiquantitative analysis (band concentration, control = 1) (Mcl-1; 18 hours): 0.78
downregulation of Mcl-1 protein, semiquantitative analysis (band concentration, control = 1) (Mcl-1; 24 hours): 0.51
inhibition against Mcl-1 (Mcl-1): had the inhibition against Bcl-2 and Mcl-1 proteins

Compound: O=C(O)C1=C2C(=NC1=O)c1cccc3c(Oc4ccccc4)ccc2c13 [3-phenoxy-8-oxo-8H-acenaphtho[1,2-b]pyrrole-9-carboxylic acid]
dependence of cytotoxicity on BAX/BAK (MCF-7 cells): absolute dependence on BAX/BAK
Time for which the compound drove the BAX to shift towards the chondriosome (Bax protein): 6 h
Concentration at which the compound drove the BAX to shift towards the chondriosome (Bax protein): 10.0 µM

Compound: NC(=O)C1=C2C(=NC1=O)c1cccc3c(N4CCSCC4)ccc2c13 [3-thiomorpholinyl-8-oxo-8H-acenaphtho[1,2-b]pyrrole-9-carboxamide]
tumor inhibition rate [3]: 45%

Compound: N#CC1=C2C(=NC1=O)c1c(OCc3cccs3)ccc3cccc2c13 [6-(thienyl-2-methoxy)-8-oxo-8H-acenaphtho[1,2-b]pyrrole-9-carbonitrile]
downregulation of Bcl-2 protein, semiquantitative analysis (band concentration, control = 1) (Bcl-2; 2 hours): 0.69
downregulation of Bcl-2 protein, semiquantitative analysis (band concentration, control = 1) (Bcl-2; 6 hours): 0.40
inhibition against Bcl-2 (Bcl-2): had the inhibition against Bcl-2 and Mcl-1 proteins
downregulation of Mcl-1 protein, semiquantitative analysis (band concentration, control = 1) (Mcl-1; 6 hours): 0.99
downregulation of Mcl-1 protein, semiquantitative analysis (band concentration, control = 1) (Mcl-1; 12 hours): 0.99
downregulation of Mcl-1 protein, semiquantitative analysis (band concentration, control = 1) (Mcl-1; 18 hours): 0.54
downregulation of Mcl-1 protein, semiquantitative analysis (band concentration, control = 1) (Mcl-1; 24 hours): 0.33
inhibition against Mcl-1 (Mcl-1): had the inhibition against Bcl-2 and Mcl-1 proteins
Time for which the compound interfered with the interaction between Bcl-2 and Bax [1]: 6 h
Concentration at which the compound interfered with the interaction between Bcl-2 and Bax [1]: 10.0 µM
Ki (GST-Bcl-2 protein): 560 nM
dependence of cytotoxicity on BAX/BAK (MCF-7 cells; MCF-7 cells, 48 hours, MTT): absolute dependence on BAX/BAK
Solubility of compounds [2, 4]: 0.35 µM
Time for which the compound drove the BAX to shift towards the chondriosome (Bax protein): 6 h
Concentration at which the compound drove the BAX to shift towards the chondriosome (Bax protein): 10.0 µM

More lines, main results first:

solubility [2, 4]: 0.25 µM (≈ 0.0884 µg/mL)
Compound: N#CC1=C2C(=NC1=O)c1cccc3c(Sc4ccc(N)cc4)ccc2c13 [3-(4-aminophenylthio)-8-oxo-8H-acenaphtho[1,2-b]pyrrole-9-carbonitrile]

solubility [2, 4]: 0.32 µM (≈ 0.113 µg/mL)
Compound: COc1ccc(Oc2ccc3c4c(cccc24)C2=NC(=O)C(C#N)=C23)cc1 [3-(4-methoxyphenoxy)-8-oxo-8H-acenaphtho[1,2-b]pyrrole-9-carbonitrile]

solubility [2, 4]: 0.25 µM (≈ 0.0841 µg/mL)
Compound: Cc1ccc(Oc2ccc3c4c(cccc24)C2=NC(=O)C(C#N)=C23)cc1 [3-(p-methylphenoxy)-8-oxo-8H-acenaphtho[1,2-b]pyrrole-9-carbonitrile]

Ki (GST-Bcl-2 protein): 600 nM
Compound: N#CC1=C2C(=NC1=O)c1cccc3c(OC4CCOCC4)ccc2c13 [3-(tetrahydro-2H-pyranyl-4-oxo)-8-oxo-8H-acenaphtho[1,2-b]pyrrole-9-carbonitrile]

solubility [2, 4]: 0.22 µM (≈ 0.0744 µg/mL)
Compound: N#CC1=C2C(=NC1=O)c1cccc3c(Sc4ccccc4)ccc2c13 [3-phenylthio-8-oxo-8H-acenaphtho[1,2-b]pyrrole-9-carbonitrile]

solubility [2, 4]: 0.12 µM (≈ 0.0437 µg/mL)
Compound: CC(C)c1ccc(Oc2ccc3c4c(cccc24)C2=C(C#N)C(=O)N=C23)cc1 [4-(4-isopropylphenoxy)-8-oxo-8H-acenaphtho[1,2-b]pyrrole-9-carbonitrile]

Time for which the compound interfered with the interaction between Bcl-2 and Bax [1]: 6 h
Concentration at which the compound interfered with the interaction between Bcl-2 and Bax [1]: 10.0 µM
Ki (GST-Bcl-2 protein): 890 nM
Compound: N#CC1=C2C(=NC1=O)c1ccc(Oc3ccccc3)c3cccc2c13 [4-phenoxy-8-oxo-8H-acenaphtho[1,2-b]pyrrole-9-carbonitrile]
Time for which the compound drove the BAX to shift towards the chondriosome (Bax protein): 6 h
Concentration at which the compound drove the BAX to shift towards the chondriosome (Bax protein): 10.0 µM
